Source: ChEMBL document CHEMBL3885881, “DrugMatrix”

Species on record: Rattus norvegicus
Assay: DrugMatrix - Regimen: Daily Repeat
Type: toxicity, organism-based, Sprague-Dawley
Parameters: regimen Daily Repeat, gender Male, age 6-8 weeks
Settings: in vivo, po, route oral GAVAGE, vehicle 100 % WATER; for ABSOLUTE BASOPHIL / ABSOLUTE EOSINOPHIL / ABSOLUTE LYMPHOCYTE / ABSOLUTE MONOCYTE / ABSOLUTE SEGMENTED NEUTROPHIL / BASOPHIL / EOSINOPHIL / ERYTHROCYTE COUNT / HEMATOCRIT / HEMOGLOBIN / LEUKOCYTE COUNT / LYMPHOCYTE / MEAN CORPUSCULAR HEMOGLOBIN / MEAN CORPUSCULAR HEMOGLOBIN CONCENTRATION / MEAN CORPUSCULAR VOLUME / MONOCYTE / NEUTROPHIL / NUCLEATED RED BLOOD CELLS / PLATELET COUNT: tissue Blood; for ALANINE AMINOTRANSFERASE / ALBUMIN / ALKALINE PHOSPHATASE / ASPARTATE AMINOTRANSFERASE / BLOOD UREA NITROGEN / CARBON DIOXIDE / CHLORIDE / CHOLESTEROL / CREATINE PHOSPHOKINASE / CREATININE / GLUCOSE / LACTATE DEHYDROGENASE / LIPASE / PHOSPHORUS / POTASSIUM / SODIUM / TOTAL BILIRUBIN / TOTAL PROTEIN / URIC ACID: tissue Plasma
[1] = 0 mg/kg, 72 h, dose level Control, time 3 day
[2] = 0 mg/kg, 120 h, dose level Control, time 5 day
[3] = 120 mg/kg, 72 h, dose level Low, time 3 day

Cc1onc(-c2ccccc2Cl)c1C(=O)N[C@@H]1C(=O)N2[C@@H]1SC(C)(C)[C@@H]2C(=O)O [CLOXACILLIN]
ABSOLUTE BASOPHIL [1]: 0 CELLS/uL
ABSOLUTE EOSINOPHIL [1]: 40 CELLS/uL
ABSOLUTE LYMPHOCYTE [1]: 13599.5 CELLS/uL
ABSOLUTE MONOCYTE [1]: 239.33 CELLS/uL
ABSOLUTE SEGMENTED NEUTROPHIL [1]: 1021.17 CELLS/uL
BASOPHIL [1]: 0%
EOSINOPHIL [1]: 0.33%
ERYTHROCYTE COUNT [1]: 5.71 x10E6/uL
HEMATOCRIT [1]: 36.35%
HEMOGLOBIN [1]: 14.05 G/DL
LEUKOCYTE COUNT [1]: 14.9 x10E3/uL
LYMPHOCYTE [1]: 91%
MEAN CORPUSCULAR HEMOGLOBIN [1]: 24.62 pg
MEAN CORPUSCULAR HEMOGLOBIN CONCENTRATION [1]: 38.65 G/DL
MEAN CORPUSCULAR VOLUME [1]: 63.7 fL
MONOCYTE [1]: 1.5%
NEUTROPHIL [1]: 7.17%
NUCLEATED RED BLOOD CELLS [1]: 0.33 /100WBC
PLATELET COUNT [1]: 1225.5 x10E3/uL
ALANINE AMINOTRANSFERASE [1]: 48.5 u/L
ALBUMIN [1]: 4.18 G/DL
ALKALINE PHOSPHATASE [1]: 390.83 u/L
ASPARTATE AMINOTRANSFERASE [1]: 89 u/L
BLOOD UREA NITROGEN [1]: 14.83 mg/dL
CARBON DIOXIDE [1]: 24.83 mmol/L
CHLORIDE [1]: 100.83 MEQ/L
CHOLESTEROL [1]: 72.5 mg/dL
CREATINE PHOSPHOKINASE [1]: 503 u/L
CREATININE [1]: 0.2 mg/dL
GLUCOSE [1]: 163 mg/dL
LACTATE DEHYDROGENASE [1]: 316.83 u/L
LIPASE [1]: 9.83 u/L
PHOSPHORUS [1]: 11.57 mg/dL
POTASSIUM [1]: 6.16 MEQ/L
SODIUM [1]: 142.62 MEQ/L
TOTAL BILIRUBIN [1]: 0.2 mg/dL
TOTAL PROTEIN [1]: 5.8 G/DL
URIC ACID [1]: 1.65 mg/dL
ABSOLUTE BASOPHIL [2]: 0 CELLS/uL
ABSOLUTE EOSINOPHIL [2]: 21 CELLS/uL
ABSOLUTE LYMPHOCYTE [2]: 14288.5 CELLS/uL
ABSOLUTE MONOCYTE [2]: 205.33 CELLS/uL
ABSOLUTE SEGMENTED NEUTROPHIL [2]: 968.5 CELLS/uL
BASOPHIL [2]: 0%
EOSINOPHIL [2]: 0.17%
ERYTHROCYTE COUNT [2]: 5.83 x10E6/uL
HEMATOCRIT [2]: 36.53%
HEMOGLOBIN [2]: 14.4 G/DL
LEUKOCYTE COUNT [2]: 15.48 x10E3/uL
LYMPHOCYTE [2]: 92%
MEAN CORPUSCULAR HEMOGLOBIN [2]: 24.72 pg
MEAN CORPUSCULAR HEMOGLOBIN CONCENTRATION [2]: 39.43 G/DL
MEAN CORPUSCULAR VOLUME [2]: 62.68 fL
MONOCYTE [2]: 1.33%
NEUTROPHIL [2]: 6.5%
NUCLEATED RED BLOOD CELLS [2]: 0.17 /100WBC
PLATELET COUNT [2]: 1280.5 x10E3/uL
ALANINE AMINOTRANSFERASE [2]: 50 u/L
ALBUMIN [2]: 4.28 G/DL
ALKALINE PHOSPHATASE [2]: 380.17 u/L
ASPARTATE AMINOTRANSFERASE [2]: 82.67 u/L
BLOOD UREA NITROGEN [2]: 15.33 mg/dL
CARBON DIOXIDE [2]: 27.17 mmol/L
CHLORIDE [2]: 100.33 MEQ/L
CHOLESTEROL [2]: 60.67 mg/dL
CREATINE PHOSPHOKINASE [2]: 441.5 u/L
CREATININE [2]: 0.16 mg/dL
GLUCOSE [2]: 146 mg/dL
LACTATE DEHYDROGENASE [2]: 189.33 u/L
LIPASE [2]: 9.17 u/L
PHOSPHORUS [2]: 11.67 mg/dL
POTASSIUM [2]: 6.86 MEQ/L
SODIUM [2]: 142.33 MEQ/L
TOTAL BILIRUBIN [2]: 0.2 mg/dL
TOTAL PROTEIN [2]: 6.12 G/DL
URIC ACID [2]: 1.82 mg/dL
ABSOLUTE BASOPHIL [3]: 0 CELLS/uL
ABSOLUTE EOSINOPHIL [3]: 0 CELLS/uL
ABSOLUTE LYMPHOCYTE [3]: 13421.33 CELLS/uL
ABSOLUTE MONOCYTE [3]: 92.33 CELLS/uL
ABSOLUTE SEGMENTED NEUTROPHIL [3]: 1186.33 CELLS/uL
BASOPHIL [3]: 0%
EOSINOPHIL [3]: 0%
ERYTHROCYTE COUNT [3]: 5.89 x10E6/uL
HEMATOCRIT [3]: 36%
HEMOGLOBIN [3]: 13.83 G/DL
LEUKOCYTE COUNT [3]: 14.7 x10E3/uL
LYMPHOCYTE [3]: 90.67%
MEAN CORPUSCULAR HEMOGLOBIN [3]: 23.47 pg
MEAN CORPUSCULAR HEMOGLOBIN CONCENTRATION [3]: 38.4 G/DL
MEAN CORPUSCULAR VOLUME [3]: 61.07 fL
MONOCYTE [3]: 0.67%
NEUTROPHIL [3]: 8.67%
NUCLEATED RED BLOOD CELLS [3]: 0 /100WBC
PLATELET COUNT [3]: 1271.67 x10E3/uL
ALANINE AMINOTRANSFERASE [3]: 68 u/L
ALBUMIN [3]: 4.1 G/DL
ALKALINE PHOSPHATASE [3]: 359 u/L
ASPARTATE AMINOTRANSFERASE [3]: 111 u/L
BLOOD UREA NITROGEN [3]: 15.33 mg/dL
CARBON DIOXIDE [3]: 23 mmol/L
CHLORIDE [3]: 103 MEQ/L
CHOLESTEROL [3]: 79.33 mg/dL
CREATINE PHOSPHOKINASE [3]: 603.33 u/L
CREATININE [3]: 0.17 mg/dL
GLUCOSE [3]: 150.33 mg/dL
LACTATE DEHYDROGENASE [3]: 726 u/L
LIPASE [3]: 9 u/L
PHOSPHORUS [3]: 13.1 mg/dL
POTASSIUM [3]: 6.07 MEQ/L
SODIUM [3]: 143.5 MEQ/L
TOTAL BILIRUBIN [3]: 0.17 mg/dL
TOTAL PROTEIN [3]: 5.77 G/DL
URIC ACID [3]: 1.8 mg/dL
